From BindingDB's records for doi:10.1021/jm0009181 (National Center For Genetic Engineering and Biotechnology …, 2000)

The compounds below were run against Bifunctional dihydrofolate reductase-thymidylate synthase (Plasmodium falciparum, UniProt A7UD81) (assay: Evaluated for inhibition constant (Ki wt) against Wild-type dihydrofolate reductase of Plasmodium falciparum).
Sequence of Bifunctional dihydrofolate reductase-thymidylate synthase (A7UD81 whole entry): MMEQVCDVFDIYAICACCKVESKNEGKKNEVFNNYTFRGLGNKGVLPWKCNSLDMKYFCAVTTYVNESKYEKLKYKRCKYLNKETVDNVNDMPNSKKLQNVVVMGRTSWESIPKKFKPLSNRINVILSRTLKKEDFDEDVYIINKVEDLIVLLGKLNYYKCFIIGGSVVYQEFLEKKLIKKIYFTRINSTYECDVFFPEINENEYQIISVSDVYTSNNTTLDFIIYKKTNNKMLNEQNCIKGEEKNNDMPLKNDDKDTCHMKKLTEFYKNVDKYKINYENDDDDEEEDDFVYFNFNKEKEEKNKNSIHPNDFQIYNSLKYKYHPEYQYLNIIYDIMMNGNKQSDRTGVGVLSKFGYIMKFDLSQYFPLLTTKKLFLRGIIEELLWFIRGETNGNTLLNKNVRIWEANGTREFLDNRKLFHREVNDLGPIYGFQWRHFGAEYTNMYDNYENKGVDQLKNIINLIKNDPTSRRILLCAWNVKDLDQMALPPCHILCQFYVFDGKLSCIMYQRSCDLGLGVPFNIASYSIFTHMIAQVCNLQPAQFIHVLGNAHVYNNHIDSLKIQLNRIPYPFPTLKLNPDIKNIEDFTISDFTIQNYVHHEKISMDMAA
Compound `CC1N=C(N)N=C(N)N1c1ccc(Cl)c(Cl)c1` (stereo unspecified) [1-(3,4-Dichloro-phenyl)-6-methyl-1,6-dihydro-[1,3,5]triazine-2,4-diamine] has a Ki of 1.4 nM. In the case of `CC1(C)N=C(N)N=C(N)N1c1ccc(Br)cc1` [1-(4-Bromo-phenyl)-6,6-dimethyl-1,6-dihydro-[1,3,5]triazine-2,4-diamine], the Ki is reported as 1.1 nM. For `CCC1N=C(N)N=C(N)N1c1ccc(Br)cc1` (stereo unspecified) [1-(4-Bromo-phenyl)-6-ethyl-1,6-dihydro-[1,3,5]triazine-2,4-diamine], the Ki was 5.7 nM. `CC(C)C1N=C(N)N=C(N)N1c1ccc(Br)cc1` (stereo unspecified) [1-(4-Bromo-phenyl)-6-isopropyl-1,6-dihydro-[1,3,5]triazine-2,4-diamine] showed a Ki of 30 nM. `CC1N=C(N)N=C(N)N1c1ccc(Br)cc1` (stereo unspecified) [1-(4-Bromo-phenyl)-6-methyl-1,6-dihydro-[1,3,5]triazine-2,4-diamine] gave a Ki of 5.7 nM. For `NC1=NC(c2ccccc2)N(c2ccc(Br)cc2)C(N)=N1` (stereo unspecified) [1-(4-Bromo-phenyl)-6-phenyl-1,6-dihydro-[1,3,5]triazine-2,4-diamine], the Ki was 2.9 nM. `CCCC1N=C(N)N=C(N)N1c1ccc(Br)cc1` (stereo unspecified) [1-(4-Bromo-phenyl)-6-propyl-1,6-dihydro-[1,3,5]triazine-2,4-diamine] gave a Ki of 2.6 nM. `NC1=NCN(c2ccc(Cl)cc2)C(N)=N1` [1-(4-Chloro-phenyl)-1,6-dihydro-[1,3,5]triazine-2,4-diamine] showed a Ki of 24.4 nM. `CCC1N=C(N)N=C(N)N1c1ccc(Cl)cc1` (stereo unspecified) [1-(4-Chloro-phenyl)-6-ethyl-1,6-dihydro-[1,3,5]triazine-2,4-diamine] gave a Ki of 3.6 nM. `CC(C)C1N=C(N)N=C(N)N1c1ccc(Cl)cc1` (stereo unspecified) [1-(4-Chloro-phenyl)-6-isopropyl-1,6-dihydro-[1,3,5]triazine-2,4-diamine] gave a Ki of 60.5 nM. `CCCC1N=C(N)N=C(N)N1c1ccc(Cl)cc1` (stereo unspecified) [1-(4-Chloro-phenyl)-6-propyl-1,6-dihydro-[1,3,5]triazine-2,4-diamine] gave a Ki of 4.6 nM. `NC1=NCN(c2ccc(F)cc2)C(N)=N1` [1-(4-Fluoro-phenyl)-1,6-dihydro-[1,3,5]triazine-2,4-diamine] was tested, and the Ki was 270 nM. In the case of `CC1(C)N=C(N)N=C(N)N1c1ccc(F)cc1` [1-(4-Fluoro-phenyl)-6,6-dimethyl-1,6-dihydro-[1,3,5]triazine-2,4-diamine], the Ki is reported as 4.6 nM. `NC1=NCN(c2ccccc2)C(N)=N1` [1-Phenyl-1,6-dihydro-[1,3,5]triazine-2,4-diamine] was tested, and the Ki was 329 nM. `CC1(C)N=C(N)N=C(N)N1c1ccccc1` [6,6-Dimethyl-1-phenyl-1,6-dihydro-[1,3,5]triazine-2,4-diamine] was tested, and the Ki was 20 nM. For `CCCCC1N=C(N)N=C(N)N1c1ccc(Cl)cc1` (stereo unspecified) [6-Butyl-1-(4-chloro-phenyl)-1,6-dihydro-[1,3,5]triazine-2,4-diamine], the Ki was 3.7 nM. In the case of `CCC1N=C(N)N=C(N)N1c1ccc(C)cc1` (stereo unspecified) [6-Ethyl-1-p-tolyl-1,6-dihydro-[1,3,5]triazine-2,4-diamine], the Ki is reported as 5.9 nM. `Cc1ccc(N2C(N)=NC(N)=NC2C(C)C)cc1` (stereo unspecified) [6-Isopropyl-1-p-tolyl-1,6-dihydro-[1,3,5]triazine-2,4-diamine] showed a Ki of 167 nM. Compound `Cc1ccc(N2C(N)=NC(N)=NC2C)cc1` (stereo unspecified) [6-Methyl-1-p-tolyl-1,6-dihydro-[1,3,5]triazine-2,4-diamine] has a Ki of 23 nM. `Cc1ccc(N2C(N)=NC(N)=NC2c2ccccc2)cc1` (stereo unspecified) [6-Phenyl-1-p-tolyl-1,6-dihydro-[1,3,5]triazine-2,4-diamine] was tested, and the Ki was 7.7 nM. Work on `CCCC1N=C(N)N=C(N)N1c1ccc(C)cc1` (stereo unspecified) [6-Propyl-1-p-tolyl-1,6-dihydro-[1,3,5]triazine-2,4-diamine] yielded a Ki of 13.7 nM.
